The text below walks through data of PubChem BioAssay AID256 (DTP/NCI, 2004).

Where “and” joins values, the source holds several entries; their conditions need not be identical. Equal values may be shown once. Inconclusive results and toxic doses are left out.

This test deals with CD2F1 mice, L1210 leukemia ip, survival T/C. The test can be described thus: NCI In Vivo Anticancer Drug Screen. Data for tumor model L1210 Leukemia (intraperitoneal) in CD2F1 (CDF1) mice. Conditions: higher = longer survival. An outline of the steps:
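Antitumor effect is scored in animals hosting a serially transplanted tumor. Values compare compound-dosed animals against vehicle-only controls as a simple quotient.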

Where [1] appears, read: endpoint: mean survival time, dose: 100.0 mg/kg/injection, schedule: Q04DX002 (ip), vehicle: saline with Tween-80.
Setting [2] is: endpoint: mean survival time, dose: 100.0 mg/kg/injection, schedule: Q01DX009 (ip), vehicle: saline with Tween-80.
[3] abbreviates: endpoint: mean survival time, dose: 200.0 mg/kg/injection, schedule: Q01DX009 (ip), vehicle: saline with Tween-80.
The mark [4] stands for this setting: endpoint: mean survival time, dose: 400.0 mg/kg/injection, schedule: Q01DX009 (ip), vehicle: saline with Tween-80.
Where [5] appears, read: endpoint: mean survival time, dose: 100.0 mg/kg/injection, schedule: Q01DX001 (ip), vehicle: saline with Tween-80.
The mark [6] stands for this setting: endpoint: mean survival time, dose: 200.0 mg/kg/injection, schedule: Q01DX001 (ip), vehicle: saline with Tween-80.
Setting [7] is: endpoint: mean survival time, dose: 400.0 mg/kg/injection, schedule: Q01DX001 (ip), vehicle: saline with Tween-80.
Setting [8] is: endpoint: mean survival time, dose: 200.0 mg/kg/injection, schedule: Q04DX002 (ip), vehicle: saline with Tween-80.
The mark [9] stands for this setting: endpoint: mean survival time, dose: 100.0 mg/kg/injection, schedule: Q04DX003 (ip), vehicle: saline with Tween-80.
The mark [10] stands for this setting: endpoint: mean survival time, dose: 200.0 mg/kg/injection, schedule: Q04DX003 (ip), vehicle: saline with Tween-80.
The mark [11] stands for this setting: endpoint: mean survival time, dose: 400.0 mg/kg/injection, schedule: Q04DX003 (ip), vehicle: saline with Tween-80.
The mark [12] stands for this setting: endpoint: mean survival time, dose: 6.25 mg/kg/injection, schedule: Q01DX009 (ip), vehicle: saline with Tween-80.

In the case of `N/C(=N\OC(=O)Nc1ccc(CSc2ccc(Cl)cc2)o1)c1ccccn1`, the T/C runs as follows: (endpoint: median survival time, dose: 12.5 mg/kg/injection, schedule: Q01DX009 (ip), vehicle: Klucel (hydroxypropylcellulose) (HPC)) 98 % of control; (endpoint: median survival time, dose: 25.0 mg/kg/injection, schedule: Q01DX009 (ip), vehicle: Klucel (hydroxypropylcellulose) (HPC)) 103 % of control; (endpoint: median survival time, dose: 50.0 mg/kg/injection, schedule: Q01DX009 (ip), vehicle: Klucel (hydroxypropylcellulose) (HPC)) 102 % of control; (endpoint: median survival time, dose: 100.0 mg/kg/injection, schedule: Q01DX009 (ip), vehicle: Klucel (hydroxypropylcellulose) (HPC)) 102 % of control; (endpoint: median survival time, dose: 200.0 mg/kg/injection, schedule: Q01DX009 (ip), vehicle: Klucel (hydroxypropylcellulose) (HPC)) 95 % of control.

On to `Cc1c(C)c(C)c([N+](=O)[O-])c([N+](=O)[O-])c1C`, for which the T/C runs as follows: (endpoint: mean survival time, dose: 50.0 mg/kg/injection, schedule: Q01DX005 (ip), vehicle: saline with Tween-80) 101 % of control; (endpoint: mean survival time, dose: 100.0 mg/kg/injection, schedule: Q01DX005 (ip), vehicle: saline with Tween-80) 101 % of control; (endpoint: mean survival time, dose: 200.0 mg/kg/injection, schedule: Q01DX005 (ip), vehicle: saline with Tween-80) 101 % of control.

For `CN(C)C(=S)Oc1c([N+](=O)[O-])cc([N+](=O)[O-])cc1C(C)(C)C`, under setting [1], the T/C was 91 % of control.

Take `O=[N+]([O-])c1cc(S(=O)(=O)c2ccc(/C=C/c3ccc4c(c3)OCO4)c([N+](=O)[O-])c2)ccc1/C=C/c1ccc2c(c1)OCO2`: the T/C under setting [2] was 95 % of control, the T/C under setting [3] is 88 % of control and the T/C under setting [4] was 93 % of control.

As to `O=C(N=C1OC2C(OC(=O)c3ccccc3)C(COC(=O)c3ccccc3)OC2N1C(=O)c1ccccc1)c1ccccc1` (configuration not stated), the T/C is 100 % of control (endpoint: mean survival time, dose: 100.0 mg/kg/injection, schedule: Q01DX009 (ip), vehicle: saline); 100 % of control (endpoint: mean survival time, dose: 200.0 mg/kg/injection, schedule: Q01DX009 (ip), vehicle: saline); 87 % of control (endpoint: median survival time, dose: 100.0 mg/kg/injection, schedule: Q04DX003 (ip), vehicle: saline sonified); 100 % of control (endpoint: median survival time, dose: 200.0 mg/kg/injection, schedule: Q04DX003 (ip), vehicle: saline sonified); 100 % of control (endpoint: median survival time, dose: 400.0 mg/kg/injection, schedule: Q04DX003 (ip), vehicle: saline sonified).

`COC(=O)Nc1nc2ccccc2[nH]1`: the T/C by setting is: under setting [5], 98 % of control; under setting [6], 91 % of control; under setting [7], 96 % of control; (endpoint: mean survival time, dose: 500.0 mg/kg/injection, schedule: Q04DX003 (ip), vehicle: saline with Tween-80) 119 % of control; (endpoint: mean survival time, dose: 600.0 mg/kg/injection, schedule: Q04DX003 (ip), vehicle: saline with Tween-80) 122 % of control; (endpoint: mean survival time, dose: 800.0 mg/kg/injection, schedule: Q04DX003 (ip), vehicle: saline with Tween-80) 111 % of control.

Regarding `COc1ccc2c(c1)CCC(c1ccccc1)=C2c1ccc(OCCN2CCCC2)cc1`, the T/C is 103 % of control (endpoint: mean survival time, dose: 6.0 mg/kg/injection, schedule: Q01DX009 (ip), vehicle: saline with Tween-80); 106 % of control (endpoint: mean survival time, dose: 12.0 mg/kg/injection, schedule: Q01DX009 (ip), vehicle: saline with Tween-80); 101 % of control (endpoint: mean survival time, dose: 24.0 mg/kg/injection, schedule: Q01DX009 (ip), vehicle: saline with Tween-80); 104 % of control (endpoint: mean survival time, dose: 40.0 mg/kg/injection, schedule: Q04DX003 (ip), vehicle: saline with Tween-80); 101 % of control (endpoint: mean survival time, dose: 80.0 mg/kg/injection, schedule: Q04DX003 (ip), vehicle: saline with Tween-80).

On to `CCOC(=O)CC(=O)c1ccc(C)cc1`, for which the T/C under setting [2] is 96 % of control, the T/C under setting [3] was 105 % of control and the T/C under setting [4] is 89 % of control.

With `O=C(O)CO.[NH2-].[NH2-].[Pt+2]`, the T/C is 192 % of control and 238 % of control (endpoint: median survival time, dose: 20.0 mg/kg/injection, schedule: Q04DX003 (ip), vehicle: saline); 182 % of control and 340 % of control (endpoint: median survival time, dose: 40.0 mg/kg/injection, schedule: Q04DX003 (ip), vehicle: saline); 98 % of control and 102 % of control (endpoint: median survival time, dose: 80.0 mg/kg/injection, schedule: Q04DX003 (ip), vehicle: saline).

Consider `CC(=O)O[C@H]1CC[C@@]2(C)C(=CC[C@H]3[C@@H]4CC[C@H](O)[C@@]4(C)CC[C@@H]32)C1`, for which the T/C was 97 % of control (endpoint: mean survival time, dose: 100.0 mg/kg/injection, schedule: Q01DX009 (ip), vehicle: Klucel (hydroxypropylcellulose) (HPC)); 90 % of control (endpoint: mean survival time, dose: 200.0 mg/kg/injection, schedule: Q01DX009 (ip), vehicle: Klucel (hydroxypropylcellulose) (HPC)); 95 % of control (endpoint: mean survival time, dose: 400.0 mg/kg/injection, schedule: Q01DX009 (ip), vehicle: Klucel (hydroxypropylcellulose) (HPC)).

As to `FC(F)(F)c1ccc(Cl)c(N=C=S)c1`, the T/C reads like this: under setting [1], 104 % of control; under setting [8], 93 % of control.

Turning to `CC(C)(C)OC(=O)NNC(c1ccccc1)c1ccccc1`, the T/C reads like this: under setting [2], 101 % of control; under setting [9], 98 % of control; under setting [3], 95 % of control; under setting [10], 95 % of control; under setting [11], 97 % of control.

Turning to `O=Cc1ccccc1O`, the T/C (endpoint: mean survival time, dose: 100.0 mg/kg/injection, schedule: Q04DX002 (ip), vehicle: saline) was 93 % of control.

In the case of `O=C1C2CCCC1C1/C(=[N+](/[O-])O)C=C([N+](=O)[O-])C2C1[N+](=O)[O-]` (configuration not stated), the T/C is, setting by setting: under setting [1], 98 % of control; under setting [8], 98 % of control; (endpoint: mean survival time, dose: 400.0 mg/kg/injection, schedule: Q04DX002 (ip), vehicle: saline with Tween-80) 110 % of control.

On to `OCC(O)C(O)C(O)C(SCc1ccccc1)SCc1ccccc1` (configuration not stated), for which the T/C under setting [5] is 97 % of control, the T/C under setting [6] was 93 % of control and the T/C under setting [7] was 89 % of control.

`C[n+]1c(/C=C\c2ccc(Cl)cc2)ccc2ccccc21`: the T/C by setting is: (endpoint: mean survival time, dose: 3.13 mg/kg/injection, schedule: Q01DX009 (ip), vehicle: saline with Tween-80) 96 % of control; under setting [12], 98 % of control; (endpoint: mean survival time, dose: 6.25 mg/kg/injection, schedule: Q04DX003 (ip), vehicle: saline with Tween-80) 98 % of control; (endpoint: mean survival time, dose: 12.5 mg/kg/injection, schedule: Q04DX003 (ip), vehicle: saline with Tween-80) 90 % of control.

In the case of `Cc1cc(SCSc2cc(C)[o+]c(C)c2)cc(C)[o+]1`, the T/C is, setting by setting: (endpoint: mean survival time, dose: 100.0 mg/kg/injection, schedule: Q04DX003 (ip), vehicle: Klucel (hydroxypropylcellulose) (HPC)) 100 % of control; (endpoint: mean survival time, dose: 200.0 mg/kg/injection, schedule: Q04DX003 (ip), vehicle: Klucel (hydroxypropylcellulose) (HPC)) 104 % of control; (endpoint: mean survival time, dose: 400.0 mg/kg/injection, schedule: Q04DX003 (ip), vehicle: Klucel (hydroxypropylcellulose) (HPC)) 102 % of control.

In the case of `Cc1ccc(S(=O)(=O)N2C(=O)OC3(CCCCC3)C2C)cc1` (configuration not stated), the T/C is, setting by setting: under setting [5], 100 % of control; under setting [6], 95 % of control; under setting [7], 92 % of control.

With `CC(C)CCC(C)C1CCC2C3CC([N+](=O)[O-])=C4CC(OC(=O)c5ccccc5)CCC4(C)C3CCC12C` (configuration not stated), the T/C by setting is: under setting [9], 102 % of control; under setting [10], 92 % of control; under setting [11], 92 % of control.

With `COc1cc(N)ccc1NC(=O)c1ccccc1`, the T/C is 94 % of control under setting [12]; 94 % of control and 100 % of control (endpoint: mean survival time, dose: 12.5 mg/kg/injection, schedule: Q01DX009 (ip), vehicle: saline with Tween-80); 93 % of control and 105 % of control (endpoint: mean survival time, dose: 25.0 mg/kg/injection, schedule: Q01DX009 (ip), vehicle: saline with Tween-80).
